Laboratory results reported in paper PMC9227781, “Inhibitors of O-Acetylserine Sulfhydrylase with a Cyclopropane-Carboxylic Acid Scaffold Are Effective Colistin Adjuvants in Gram Negative Bacteria” (Pharmaceuticals, 2022).

Columns and labels:
S. Typhimurium ATCC14028 = experiment: MIC by broth microdilution, S. Typhimurium; format: cell-based, Salmonella enterica serovar Typhimurium; details: Salmonella enterica; compound alone, MHB, 24 h at 37 °C; read-out: MIC (μg/mL) S. Typhimurium ATCC14028
Method: (§1) MIC values were evaluated following CLSI guidelines with some modifications, as referred to in previous work. Twofold dilutions 25.6–0.05 mg/mL of the tested compounds were performed in DMSO in separate 96-well microtiter U-plates (Greiner, Milan, Italy). In a different 96-well microtiter U-plate, for each well of the replicates, 49 µL of broth medium were added. Then, in each well of the plate, one microliter of each compound at variable dilution in DMSO was added. For each test, three independent experiments with three replicates each were performed. Tested reference bacterial strains (E. coli ATCC25922; S. Typhimurium ATCC14028; K. pneumoniae ATCC13883) were brought to the logarithmic phase of growth in MHB medium by incubation at 37 °C for 24 h. After incubation, bacterial suspensions were centrifuged (2000 rpm, 4 °C for 20 min), and then the pellets were resuspended in 100 mM phosphate buffer, pH 7.0, to reach a final bacterial concentration of 10^8 CFU/mL, adjusted by spectrophotometry (OD620nm ranged between 0.08–0.13). The obtained suspensions were further diluted 1:100 in broth medium to reach a bacterial concentration of 10^6 CFU/mL. Fifty µL of the bacterial suspension containing 10^6 CFU/mL were inoculated into each well within 30 min, to obtain a final concentration of 5 × 10^5 CFU/mL in a total volume of 100 µL. The final dilution range tested was 256–0.5 µg/mL. Growth and sterility controls were performed for each strain and for each tested compound. Plates were then incubated for 24 h at 37 °C in a static aerobic atmosphere. After incubation, plates were read by unaided eye with a microtiter reading mirror and then the OD of each well of the plates was measured spectrophotometrically at 620 nm. MIC values were calculated as the arithmetic mean ± standard deviation (SD) of the unaided eye reading and the inhibition of growth for each tested dilution was calculated from the OD values (mean ± SD). A quality control microorganism (E. coli ATCC 25922) was tested periodically to validate the accuracy of the procedure.

E. coli ATCC 25922 = experiment: MIC by broth microdilution, E. coli; format: cell-based, Escherichia coli; details: Escherichia coli, ATCC25922; compound alone, MHB, 24 h at 37 °C; read-out: MIC (μg/mL) E.coli ATCC 25922
Method: as §1

StOASS-B = target: T1, StOASS-B (Salmonella typhimurium, UniProt P29848); experiment: Fluorescence binding assay on purified recombinant StOASS-B
T1 construct: His-tag (with TEV site) (cleaved yes); made in house; host or cells: E. coli Rosetta (DE3)
T1 sequence (P29848 1-303): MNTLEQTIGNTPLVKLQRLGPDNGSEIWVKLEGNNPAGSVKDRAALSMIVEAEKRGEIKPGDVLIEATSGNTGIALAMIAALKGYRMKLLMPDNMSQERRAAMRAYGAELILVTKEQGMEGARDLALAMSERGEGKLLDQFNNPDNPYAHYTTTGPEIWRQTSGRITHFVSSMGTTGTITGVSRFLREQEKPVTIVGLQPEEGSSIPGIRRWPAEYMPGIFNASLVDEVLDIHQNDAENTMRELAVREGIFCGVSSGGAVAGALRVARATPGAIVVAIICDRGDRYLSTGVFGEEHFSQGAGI
Method: The affinity of the compounds for StOASS-A and StOASS-B was determined on the purified recombinant proteins by an in vitro fluorescence binding assay. Measurements were carried out at 20 °C in a 3 mm pathlength quartz microcuvette in 100 mM HEPES, 5% DMSO (Applichem, Darmstadt, Germany), pH 7.0, using a Fluoromax-4 (Horiba Jobin-Yvon, Kyoto, Japan) spectrofluorometer. Emission spectra of solutions containing 0.2–1.0 μM StOASS, upon excitation of the pyridoxal 5′-phosphate cofactor at 412 nm, in the presence of increasing concentrations of compounds were collected; fluorescence intensities at 500 nm were plotted to compound concentration and data were fitted to a binding isotherm: I=I0+ΔI·compound/KD+compound where I is the fluorescence emission intensity at 500 nm in the presence of a given concentration of compound, I0 is the initial fluorescence emission in the absence of ligands, ΔI is the amplitude of the fluorescence emission change and KD is the dissociation constant. When the KD was lower than the protein concentration, data were fitted to the quadratic equation: I=I0+ΔI·OASS+compound+KD−OASS+compound+KD^2−4·OASS·compound/2
Data were collected in duplicate.
Esters were tested up to a concentration of 100 μM and no binding was observed.

K. pneumoniae ATCC13883 = experiment: MIC by broth microdilution, K. pneumoniae; format: cell-based, Klebsiella pneumoniae; details: Klebsiella pneumoniae, ATCC13883; compound alone, MHB, 24 h at 37 °C; read-out: MIC (μg/mL) K. pneumoniae ATCC13883
Method: as §1

Structure (SMILES)	MIC (S. Typhimurium ATCC14028) [µg/mL]	MIC (E. coli ATCC 25922) [µg/mL]	KD (μM) OASS-B (StOASS-B; 20 °C, 100 mM HEPES, 5% DMSO, pH 7.0, racemic mixture, esters tested up to 100 μM)	MIC (K. pneumoniae ATCC13883) [µg/mL]	Kd (StOASS-B) [µM]
CCOC(=O)C1(Cc2ccc(C)cc2)CC1c1cccc(N2CC(C)OC(C)C2)c1 (stereo not drawn) [Compound 12h, trans-ethyl 2-(3-(2,6-dimethylmorpholino)phenyl)-1-(4-methylbenzyl)cyclopropanecarboxylate]	> 512	> 512	No binding	> 512	
Cc1ccc(CC2(C(=O)O)CC2c2cccc(N3CC(C)OC(C)C3)c2)cc1 (stereo not drawn) [Compound 13h, trans-2-(3-(2,6-dimethylmorpholino)phenyl)-1-(4-methylbenzyl)cyclopropanecarboxylic acid]	> 512	> 512		> 512	3.37 ± 0.72
